In patent EP0482717A1, “Use of a benzo[b]thiophene-2-carboximidamide derivative against heart failure” (Akzo Nobel N.V., priority 1990, dated 1992):
Marks after values point to notes of the source that are not given here.

Assays:
Format in all cases: in vivo
[1] = tested on: conscious dog; assay: Left ventricular contractility (LV dP/dt), emesis and restlessness after oral administration to conscious dogs
Text: (§1) Related compounds with positive inotropic activity have been disclosed in European patent 158,380.
(§2) The pharmacological results after oral administration of compounds I (this invention) vs. compounds II and III (EP 158,380), are depicted in table I (cat) and table II (dog).

[2] = Plasma drug levels in multiple dose studies in rats; settings: compared with an equivalent dose of compound II
[3] = tested on: anaesthetized cat; assay: Left ventricular contractility (LV dP/dt) after oral administration (by gavage) to anaesthetized cats; settings: for potency at increasing left ventricular contractility (LV dP/dt): administered orally (by gavage), compounds I and II compared, species not given
Text: However, it also appeared that this improvement with regard to compound II could be fully attributed to its reduced bioavailability. […] Poor activity was also observed after oral administration (by gavage) of the compound to anaesthetized cats. Substitution with C1 at the 4- position in the benzothiophene nucleus, thus reduces oral activity.
as §2

[4] = tested on: volunteers; assay: Clinical Phase I studies, oral administration to volunteers
Text: as §1

[5] = oral administration, conscious dog, dose 25 mg/kg

Compound: COc1cc2sc(C(=N)NO)cc2c(F)c1OC [Compound I, 4-fluoro-N-hydroxy-5,6-dimethoxybenzo[b]thiophene-2-carboximidamide]
- emetic effect compared with compound II ([1]; oral administration to conscious dogs): less emetic than compound II
- emesis [1, 5]: 0
- increase in LV dP/dt (%) [1, 5]: 45%
- restlessness [1, 5]: 0
- increases in LV dP/dt ([1]; oral dose 25 mg/kg): marked increases
- vomiting ([1]; oral dose 25 mg/kg): no significant vomiting
- plasma drug levels [2]: higher
- potency at increasing left ventricular contractility (LV dP/dt) [3]: approximately equipotent

Compound: COc1cc2sc(C(N)=NO)cc2c(Cl)c1OC [III]
- increases of left ventricular contractility (LV dP/dt) ([1]; conscious dogs, oral administration, doses up to and including 50 mg/kg): Only modest increases
- emesis and vomiting ([1]; dose not stated): did not cause emesis and vomiting
- restlessness ([1]; dose not stated): restlessness was still observed
- emesis [1, 5]: 0
- increase in LV dP/dt (%) [1, 5]: 10%
- activity after oral administration (by gavage) ([3]; anaesthetized cats): Poor activity

Compound: COc1cc2cc(C(N)=NO)sc2cc1OC [II]
- doses at which the compound consistently produces vomiting and restlessness ([1]; administered orally to conscious restrained dogs): > 10 mg/kg
- increase in LV dP/dt (%) [1, 5]: 50-100* %
- nausea and vomiting [4]: nausea and vomiting were also observed
- potency at increasing left ventricular contractility (LV dP/dt) [3]: approximately equipotent
